According to patent US20200190077A1, “NEUROPROTECTIVE HYDRAZIDES” (priority 2018, published 2020):

Experiments:
CSM14.1 neuronal cells = test: Rescue of CSM14.1 neurons from thapsigargin-induced cell death (ATPlite); type: cell-based; details: Rattus norvegicus, Neuron; 15 μM thapsigargin, 20 h; 10 μM compound, 2 h preincubation; cellular ATP content; read-out: % CSM14.1 Cell Viability after treatment with 15 μM TG in Presence of 10 μM compound
Source text: Ability of Compounds to Rescue CSM14.1 Neurons from Thapsigargin-Induced Cell Death.
To assess the ability of the compounds to rescue neurons from ER stress-induced cell death, the rat striatal neuroprogenitor cell line CSM14.1 was used. Endoplasmic reticulum (ER) stress has been established as the major cause of neuronal loss in stroke, ischemia, and neurodegeneration (Tajiri, S.; Oyadomari, S.; Yano, S.; Morioka, M.; Gotoh, T.; Hamada, J. I.; Ushio, Y.; Mori, M. Cell Death Differ. 2004, 11, 403-415; Kohno, K.; Higuchi, T.; Ohta, S.; Kumon, Y.; Sakaki, S. Neurosci. Lett. 1997, 224, 17-20; ladecola, C.; Zhang, F.; Casey, R.; Nagayama, M.; Ross, M. E. J. Neurosci. 1997, 17, 9157-9164). Thus, we used the known ER stress-causing agent thapsigargin (TG) to model the compromised state in vitro. TG causes 100% cell death in most cases, and compounds were assessed for neuroprotection by measuring cell viability when dosed at 10 μM. CSM14.1 cells were recovered from cultures by trypsinization and plated in 96-well plates and incubated overnight at 32° C. 5 μl of test compound was added to achieve a final concentration of […]. Salubrinal and DMSO without compound were used as positive and negative controls, respectively. After 2 h of preincubation, TG-containing DMEM was added to give a final concentration of 15 μM and incubated for an additional 20 h. Cell viability was assessed by a cellular ATP content assay (ATPlite, PerkinElmer Life Sciences).

[1] = test system: SUMOylation of His-RanGap (SUMO-E1 (SAE), SUMO-E2 (UBC9), GST-SUMO); test: HTRF assay measuring increase in SUMOylation of His-RanGap; type: biochemical; details: His-RanGap substrate; HTRF 665/620 ratio; 30 min at room temperature; triplicate
Experimental: Assay Measuring Increase in SUMOylation of his-RanGap.
We utilized an HTRF assay containing SUMO-E1 (SAE), SUMO-E2 (UBC9), GST-SUMO and His-RanGap, a known SUMO substrate, as well as the respective fluorescent antibodies. The assay was run in 1536-well plate format and the selected activators were chosen based on their ability to increase the FRET signal over a baseline level. In 1536-well white plates, 2 μl of phosphate buffered saline (assay buffer) was dispensed into columns 1 and 2, and 2 μl of Mixture 1 (37.5 nM E1 and 100 nM His-RanGap-1) in assay buffer (50 mM Tris-HCl pH 7.4, 0.3 mM DTT, 10 mM MgCl2, 0.005% Tween-20), was dispensed into columns 3-48. Using a pintool, 70 nl of 2 mM compounds in DMSO was dispensed to columns 5-48 and 70 nl of DMSO was dispensed to columns 1-4. Using the Thermo Scientific MultiDrop Combi, 2 μL of Mixture 2 (20 mM ATP, 12.5 nM E2 and 30 nM GST-SUMO in buffer) was dispensed to all wells and incubated for 30 min. at room temperature followed by 1 μl of 500 mM KF. Plates were read on a PheraStar in a HTRF mode (Ex: 337 nm; Em: 620/665 nm). The ratio of fluorescence 665 over 620 was utilized as a readout of the assay. Increase in SUMOylation was calculated by comparison to baseline level. Measurements were done in triplicate.

SMILES	viability at 10 µM (CSM14.1 neuronal cells)	% INCREASE IN SUMOylation over endogenous baseline level [1]
Cc1cc(C)c2nc(NNC(=O)c3cc(=O)c4ccccc4o3)sc2c1 [Compound B2, N′-(4,6-Dimethylbenzo[d]thiazol-2-yl)-4-oxo-4H-chromene-2-carbohydrazide]	51 to 60%	C (C = 31%-40% increase)
Cc1ccc2sc(NNC(=O)c3cc(=O)c4ccccc4o3)nc2c1C [Compound B1, N′-(4,5-dimethylbenzo[d]thiazol-2-yl)-4-oxo-4H-chromene-2-carbohydrazide]	40 to 50%	C (C = 31%-40% increase)
COc1cccc2sc(NNC(=O)C3COc4ccccc4O3)nc12 (stereo not drawn) [Compound B3, N′-(4-methoxybenzo[d]thiazol-2-yl)-2,3-dihydrobenzo[b][1,4]dioxine-2-carbohydrazide]	51 to 60%	A (A = 10%-20% increase)
